Laboratory results reported in patent publication US11401516B2, “Channel modulators” (AUCKLAND UNISERVICES LIMITED, priority 2014, dated 2022).
Where a SMILES comes first, the peptide text is derived from it. Where no end group is shown, it is not given here. didodecyl = two dodecyl groups (C12-C12) conjugated at the N terminus

Experiments:
hCMVEC cells = test: Scrape load assay (Lucifer yellow dye transfer); type: cell-based, human; details: broad spectrum gap-junction blocker, concentration not given
Protocol: In the below Examples 2, 4, 5, 8 and 10 using human cerebral microvascular endothelial cells (hCMVEC), cells were prepared by growing them in collagen coated (30 μg/mL) T25 or T75 flasks maintained in Medium M199 supplemented with 10% FCS, 1 μg/mL hydrocortisone, 3 ng/mL hFGF, 1 ng/mL hEGF, 10 μg/mL heparin, 1× penicillin streptomycin neomycin (Life Technologies), and cAMP (100 μL 100% cAMP to 100 mL media). Cells were maintained at 37° C. with 95% O2 and 5% CO2.
In this Example, human cerebral microvascular endothelial cells (hCMVEC) were grown in collagen coated (1 μg/mL) T25 flasks maintained in Medium M199 supplemented with 10% FBS, 1 μg/mL hydrocortisone, 3 ng/mL hFGF, 1 ng/mL hEGF, 10 μg/mL heparin and cAMP (100 μL 100% cAMP to 100 mL media) in a humidified atmosphere at 37° C. with 5% CO2. One day prior to experimentation, these cells were trypsinized and plated at a density of 4×10^5 cells/well in a collagen-coated 12 well-plate in the same medium. For treatments, cells were cultured in the presence of peptide5, a control gap junction channel blocker (carbenoxolone), or tonabersat for the respective time intervals prior to scrape dye loading. The blockers were also present in the respective scrape loading solutions.
For scrape loading the hCMVEC cells were washed three times with phosphate buffered saline (PBS) (without divalent cations). A solution of PBS+0.05% lucifer yellow was added to cells. The cells then received a scrape to the monolayer using a size 10 carbon steel surgical blade and incubated in the dark at 37° C. with 5% CO2 for 5 minutes. The cells were washed with PBS four times and then 1 mL of PBS added for fluorescent microscopy.
The live cells were then imaged on a Nikon TE2000E fluorescent microscope whilst maintained in a chamber heated to 37° C. with 5% CO2. Three images pairs were obtained at 10× magnification for each of a phase contrast image to view total cells and a fluorescent image to visualize Lucifer yellow using 488 nm excitation and a GFP filter block. Gap junctional communication was determined by counting the number of Lucifer yellow positive cells and presented as a percentage to the positive cells of the control group. Data was graphed as mean+standard error of the mean using Prism v5.02 software. Significance was determined through students two-tailed, unpaired, T Tests. *=p<0.05, **=[…], ***=p<0.001.
An in vitro scrape-loading assay with extracellular Lucifer Yellow (LY), a fluorescent dye that is transferred only through coupled GJs was performed to test whether Tonabersat inhibits GJ communication (M. H. el-Fouly, et al., Experimental cell research 168, 422 (February, 1987)). A single scrape wound was made to a confluent monolayer of hCMVEC cells to enable LY dye to gain access to the cytoplasm of cells at the edge of the wounded region and allow the dye to transfer to adjacent cells through GJs.

Connexin43 hemichannel = molecular target: T1, Connexin43 hemichannel (Homo sapiens, UniProt P17302); test: Whole-cell voltage clamp, Connexin43 transfected HeLa cells; type: cell-based; details: voltage steps; peptide5 100 μM; carbenoxolone and LaCl3 concentration not stated
T1 construct: expressed in transfected cells; host or cells: HeLa (connexin-deficient parent), Cx43IRESeGFP, puromycin selection
Protocol: Whole-cell voltage clamp studies were conducted on connexin deficient HeLa cells, Connexin43 transfected HeLa cells and isolated human cerebral microvascular endothelial cells (hCMVEC).
HeLa cells were seeded at 0.045×10^6 cells/mL on 18 mm rat collagen I coated coverslips 16-24 hours before each experiment. Cx43IRESeGFP HeLa cells were cultured overnight in DMEM supplemented with 10% FCS and 1 μg/mL Puromycin at 37° C. at 95% O2 and 5% CO2. Control Cx-deficient cells were maintained in DMEM supplmented with 10% FCS. Coverslips were transferred to a chamber continuously perfused with modified Krebs-Ringer solution containing (in mM): 140 NaCl, 5.4 KCl, 1 MgCl2, 10 mM Hepes and pH adjusted to 7.4 at room temperature. The internal pipette solution contained (in mM): 130 KCl, 10 sodium aspartate, 0.26 CaCl2, 2 EGTA, 5 tetraethylammonium-Cl, 1 MgCl, 3 MgATP, and 5 Hepes at pH 7.2; and was kept on ice. The solutions are described in Contreras J E, et al., Cell Communication and Adhesion (2003), 10:245-249. To resolve single currents in whole-cell configuration, cells with low capacitance (<10 pF) and high resistance pipettes ([…]) with a seal resistance of (>5 GOhm) were selected for recording and analysis.

[1] = test system: Cx43 hemichannel and pannexin channel mediated ATP release from hCMVEC cells; test: In vitro ischaemia injury ATP assay; type: cell-based, human
Protocol: (§1) Using an in vitro ischemia injury model, the Cx43 hemichannel and pannexin channel mediated ATP release was differentiated using the connexin hemichannel blocking mimetic peptide5 at 100 μM concentration (S. J. O'Carroll, et al., Cell communication & adhesion 15, 27 (May, 2008)) and 1 mM Probenecid (W. R. Silverman et al., The Journal of biological chemistry 284, 18143 (Jul. 3, 2009)).
Human cerebral microvascular endothelial cells (hCMVEC) were trypsinised (TrypLE Express, Life technologies) and plated at a density of 0.025×10^6 cells per well in a collagen-coated 12-well plate (1 μg/cm2) a day prior to the experiment. Cells were incubated in culture medium overnight. Hypoxic, acidic, ion-shifted Ringer injury solution that mimics ionic concentrations and acid-base shifts of the interstitial space in hypoxic-ischemic brains (A. Bondarenko, et al., Glia 34, 143 (Apr. 15, 2001)) was used to trigger hemichannel opening. The injury solution (in mM): 38 NaCl, 13 NaHCO3, 3 Na-gluconate, 65 K-gluconate, 38 NMDG-Cl, 1 NaH2PO4, 1.5 MgCl2, was bubbled in N2 gas (>99% purity, 20 L/min) for 5 minutes and pH adjusted to 6.6 using 5 M HCl. Control solution that mimics physiological conditions contained (in mM): 124 NaCl, 3 KCl, 26 NaHCO3, […], 1 NaH2PO4, 1.3 CaCl2, 1.5 MgCl2, and 10 Glucose, and pH 7.4 was adjusted using 5 M HCl (Bondarenko, 2001). […] Following a 2-hour injury the solutions were immediately placed on ice. In the injury and reperfusion model, hCMVEC cells were incubated in 500 μL of normal solution or injury solution for 2 hours at 37° C. in 95% O2 and 5% CO2. Following 2 hour injury, the solutions were discarded and replaced with 500 μL of the normal solution, or Tonabersat (10 μM) dissolved in normal solution, and were incubated for 2 hours at 37° C. in 95% O2 and 5% CO2. These solutions were also then immediately placed on ice. Peptide5 (100 μM)+/−Probenecid (1 mM) were used as controls for both injury and injury-reperfusion models. ATP concentration in the samples was determined using a Luciferin/luciferase bioluminescence reaction (ATP Determination Kit, Molecular Probes) and detected using a luminescence plate reader (VICTOR X, Perkin Elmer #2030-0010). Standard curves were generated in each experiment from an ATP standard (500 nM) to quantify the concentration of ATP in the test samples. The data is presented as mean±standard error relative to the injury or injury-reperfusion control. Statistically significant differences between samples were identified using one-way analysis of variance and Tukey's multiple comparisons test.

[2] = bovine
[3] = test system: Cx43 hemichannel and pannexin channel mediated ATP release from hCMVEC cells; test: In vitro ischaemia injury-reperfusion ATP assay; type: cell-based, human; details: 2 h, 1000 µM
Protocol: as §1
Human cerebral microvascular endothelial cells (hCMVEC) were trypsinised (TrypLE Express, Life technologies) and plated at a density of 0.025×10^6 cells per well in a collagen-coated 12-well plate (1 μg/cm2) a day prior to the experiment. Cells were incubated in culture medium overnight. Hypoxic, acidic, ion-shifted Ringer injury solution that mimics ionic concentrations and acid-base shifts of the interstitial space in hypoxic-ischemic brains (A. Bondarenko, et al., Glia 34, 143 (Apr. 15, 2001)) was used to trigger hemichannel opening. […] ATP concentration in the samples was determined using a Luciferin/luciferase bioluminescence reaction (ATP Determination Kit, Molecular Probes) and detected using a luminescence plate reader (VICTOR X, Perkin Elmer #2030-0010). Standard curves were generated in each experiment from an ATP standard (500 nM) to quantify the concentration of ATP in the test samples. […]

retinal vessel leak = test: Retinal ischemia reperfusion (glaucoma model), vessel leak with Evan's blue dye; type: in vivo, Wistar rats; details: 4 hr post-ischemia, intravitreal
Protocol: (§2) The effects of chemical modification and particulate formulation delivery were measured on rats modelled for glaucoma with a retinal ischemia reperfusion. First, a retinal ischemia reperfusion model was created. A total of 121 adult male Wistar rats weighing 200 to 300 g were used for the study. Retinal ischemia was modeled in the left eye (120 mmHg for 60 min), with the right eye as the control, and then the connexin 43 modulator peptide formulations were injected intravitreally immediately as solutions in 1×PBS delivery agent. The connexin 43 modulator peptide used was SEQ-Pept5, in both its unmodified and chemically modified (didodecyl) forms. The formulations used were neat (just diluted in 1×PBS delivery media) solutions of nanoparticles or microparticles. After reperfusion, Evan's blue dye was injected intraperitoneally 4 hr after reperfusion to visualize vessel leak using confocal microscopy. Retinal whole mounts were collected at 8 hr and 28 days for Cxn43 quantitification, and 28 and 90 days for gangliol cell (RGC) density quantification.

Cxn43 = Cxn43 (Rattus norvegicus, UniProt P08050); test: Retinal ischemia reperfusion (glaucoma model), Cxn43 quantification; type: in vivo, Wistar rats; details: 8 hr after ischemia
Protocol: as §2

Retinal ganglion cell = test: Retinal ischemia reperfusion (glaucoma model), RGC count; type: in vivo, Wistar rats; details: after 28 days
Protocol: as §2

T1 sequence (P17302 2-382 limits assumed): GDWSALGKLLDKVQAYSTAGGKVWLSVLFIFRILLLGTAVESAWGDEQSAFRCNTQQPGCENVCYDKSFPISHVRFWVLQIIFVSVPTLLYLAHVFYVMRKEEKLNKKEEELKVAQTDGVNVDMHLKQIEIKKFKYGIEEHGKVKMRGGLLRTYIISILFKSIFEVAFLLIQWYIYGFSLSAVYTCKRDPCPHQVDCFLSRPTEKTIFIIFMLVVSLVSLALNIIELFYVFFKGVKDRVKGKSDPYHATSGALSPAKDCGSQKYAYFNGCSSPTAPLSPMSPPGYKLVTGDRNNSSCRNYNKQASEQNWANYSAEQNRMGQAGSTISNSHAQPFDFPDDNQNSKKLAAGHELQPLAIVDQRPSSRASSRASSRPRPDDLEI
Sequence of Cxn43 (P08050 2-382 limits assumed): as the sequence (P17302 2-382 limits assumed) above, with D123E, I163V, K242R, S250T, A252P, A256S, Q262P, S343A, L346V counted along it

For CC1(C)[C@@H](OC(=O)CCC(=O)O)CC[C@]2(C)[C@H]3C(=O)C=C4[C@@H]5C[C@@](C)(C(=O)O)CC[C@]5(C)CC[C@@]4(C)[C@]3(C)CC[C@@H]12 [Carbenoxolone], the “LY positive cells compared to control” value (hCMVEC cells) was 77.8±7.4%, the Connexin43 hemichannel activity (Connexin43 hemichannel) was “virtually complete hemichannel block” and the “level of the inhibition of ATP release” value ([1]; ischemic injury) was 65%.

In the case of CC(C)C[C@H](NC(=O)[C@H](Cc1ccccc1)NC(=O)[C@H](CS)NC(=O)[C@H](CC(=O)O)NC(=O)[C@@H](N)C(C)C)C(=O)N[C@@H](CO)C(=O)N[C@@H](CCCNC(=N)N)C(=O)N1CCC[C@H]1C(=O)N[C@H](C(=O)N[C@@H](CCC(=O)O)C(=O)N[C@@H](CCCCN)C(=O)N[C@H](C(=O)O)[C@@H](C)O)[C@@H](C)O [Peptide5] (H-VDCFLSRPTEKT-OH), the half-life [2] is reported as ~2 h.

For CCCN(CCC)S(=O)(=O)c1ccc(C(=O)O)cc1 [Probenecid, p-[Dipropylsulfamoyl]benzoic acid], the “total extracellular ATP release, percentage of the injury control” value ([1]; 2-hour injury, 100 μM Peptide5, 1 mM Probenecid, alone or combined) was 83.1±4.5% and the “ATP release, percentage of the injury-reperfusion (IR) control” value [3] was 99.3±4.4%.

For “C12-C12 Cxn43 MP: connexin 43 modulator peptide conjugated at the N terminus to two dodecyl groups, SEQ ID NO: 237 (didodecyl-VDCFLSRPTEKT)”, the vessel leak (retinal vessel leak) was “reduction in vessel leak”, the Cxn43 spot counts (Cxn43) was “reduced moreso” and the RGC survival (Retinal ganglion cell) was “over 93%”.
